Values of other authors as cited in patent US9493512B2, “Solution phase processes for the manufacture of macrocyclic depsipeptides and new intermediates” (NOVARTIS AG, priority 2012, dated 2016).

Biological target: chymotrypsin (Bos taurus, UniProt P00766)
Details: see J. Nat. Prod. 68(9), 1324-7 (2005); read-out: IC50 value, inhibition of chymotrypsin

## CC(=O)N[C@@H](CCC(N)=O)C(=O)N[C@@H]1C(=O)N[C@@H](CC(C)C)C(=O)N[C@H]2CC[C@@H](O)N(C2=O)[C@@H](Cc2ccccc2)C(=O)N(C)[C@@H](Cc2ccc(O)cc2)C(=O)N[C@@H](C(C)C)C(=O)O[C@@H]1C [Nostopeptin (BN920)]
  IC50: 31 nM
